log10 OH rate constant (cm³/molecule/s) data for 29 compounds are collected here from the OPERA property sets (Mansouri et al. 2018).

The conditions of the first data set: 22.0 °C.
`CCCCSCCCC` displayed a log10 OH rate constant (cm³/molecule/s) of -10.4.
The same measure, in the same setting: next, `C1=Cc2ccccc2C1`: -10.3; `FC(Cl)C(F)(F)C(F)(F)Cl` (centres undefined): -14.1.

The same data set, now with this note: 23.0 °C.
In turn, `FC(F)(Br)C(F)(F)Br` showed a log10 OH rate constant (cm³/molecule/s) of under -15.9.
Same read-out and setting: the figure for `C[C@@H]1CC[C@@H]2C[C@H]1C2(C)C` is -10.9; for `CC1(C)C2CC3C(C2)C31C` it is -11.5.

Staying with this data set, now noted: 24.0 °C.
Compound `FC(F)(Br)Br` showed a log10 OH rate constant (cm³/molecule/s) of under -15.2.

Still in this data set, the particulars now being: 25.0 °C.
`COS(=O)(=O)OC` had a log10 OH rate constant (cm³/molecule/s) of under -12.3.
The same measure, in the same setting: the figure for `C=CC[N+](=O)[O-]` is -10.9.
The same measure, in the same setting: next, `O=[N+]([O-])C1=CCCCC1`: -10.4.
As for `CCCCON=O`, the log10 OH rate constant (cm³/molecule/s) was -11.6.
Consider `CCCCO[N+](=O)[O-]`, for which the log10 OH rate constant (cm³/molecule/s) was -11.8.
Still for that read-out and setting: the figure for `CC[N+](=O)[O-]` is -12.8.
`CCCl` showed a log10 OH rate constant (cm³/molecule/s) of -12.4.
On the same count and under the same terms, next, `FC(Br)(Br)Br`: under -15; `C=C[N+](=O)[O-]`: -11.9.
On the same count and under the same terms, the figure for `CCOCC` is -10.9.
`FC(F)(F)Br`: the log10 OH rate constant (cm³/molecule/s) was under -16.
On the same count and under the same terms, next, `CCCCCCCCCCCC`: -10.8.
In turn, `CSC` came in with a log10 OH rate constant (cm³/molecule/s) of -11.3.
Still for that read-out and setting: the figure for `CC#N` is -13.6; for `CC(C)(C)OO` it is -11.5; for `C1C2C3C2C2C1C32` (centres undefined) it is -11.7.
Still for that read-out and setting: next, `FC(F)(F)C(F)(F)C(Cl)Cl`: -13.6.
Same read-out and setting: the figure for `CCON=O` is -12.2; for `C` it is -14.2.
In the case of `CON=O`, the log10 OH rate constant (cm³/molecule/s) is -12.7.
The compound `CCCCCCCCO` showed a log10 OH rate constant (cm³/molecule/s) of -10.8.
Same read-out and setting: next, `FC(Cl)(Cl)Cl`: under -15.3.
